Results taken from PubChem BioAssay AID1963976 (Molecular Pharmacology Branch, DTP, NCI, 2024).
pIC50: −log10 of the molar value.

Tested on: 435261-313-R-J1-PDC tumor spheroid viability
Assay: Anticancer human tumor 435261-313-R-J1-PDC patient-derived colon adenocarcinoma cell line growth inhibition [PI3K]
Settings: spheroids with HUVEC and MSC; for pIC50: curve of first compound; for viability, T/C: stronger effect = lower value
Procedure, shortened: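 We assembled tumor spheroids that included a stromal compartment of HUVEC and MSCs, then exposed them to targeted agents alone and together with PI3K pathway inhibitors. Concentration series descended by half-log from clinically achievable Cmax levels. Viability served as the endpoint.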

[1] = second compound 0.00316 µM, first compound 0.0316 µM
[2] = second compound 0.00316 µM, first compound 0.1 µM
[3] = second compound 0.00316 µM, first compound 0.316 µM
[4] = second compound 0.00316 µM, first compound 1 µM
[5] = second compound 0.00316 µM, first compound 3.16 µM
[6] = second compound 0.00316 µM, first compound 10 µM
[7] = second compound 0.01 µM, first compound 0.0316 µM
[8] = second compound 0.01 µM, first compound 0.1 µM
[9] = second compound 0.01 µM, first compound 0.316 µM
[10] = second compound 0.01 µM, first compound 1 µM
[11] = second compound 0.01 µM, first compound 3.16 µM
[12] = second compound 0.01 µM, first compound 10 µM
[13] = second compound 0.0316 µM, first compound 0.0316 µM
[14] = second compound 0.0316 µM, first compound 0.1 µM
[15] = second compound 0.0316 µM, first compound 0.316 µM
[16] = second compound 0.0316 µM, first compound 1 µM
[17] = second compound 0.0316 µM, first compound 3.16 µM
[18] = second compound 0.0316 µM, first compound 10 µM
[19] = second compound 0.1 µM, first compound 0.0316 µM
[20] = second compound 0.1 µM, first compound 0.1 µM
[21] = second compound 0.1 µM, first compound 0.316 µM
[22] = second compound 0.1 µM, first compound 1 µM
[23] = second compound 0.1 µM, first compound 3.16 µM
[24] = second compound 0.1 µM, first compound 10 µM
[25] = second compound 0.316 µM, first compound 0.0316 µM
[26] = second compound 0.316 µM, first compound 0.1 µM
[27] = second compound 0.316 µM, first compound 0.316 µM
[28] = second compound 0.316 µM, first compound 1 µM
[29] = second compound 0.316 µM, first compound 3.16 µM
[30] = second compound 0.316 µM, first compound 10 µM
[31] = second compound 1 µM, first compound 0.0316 µM
[32] = second compound 1 µM, first compound 0.1 µM
[33] = second compound 1 µM, first compound 0.316 µM
[34] = second compound 1 µM, first compound 1 µM
[35] = second compound 1 µM, first compound 3.16 µM
[36] = second compound 1 µM, first compound 10 µM

`CC(Cn1ccc(-c2ccc(C#N)c(Cl)c2)n1)NC(=O)c1cc(C(C)O)[nH]n1` (centres undefined) + CC(Nc1ccc2c(c1)OCCn1cc(N3C(=O)OCC3C(F)F)nc1-2)C(N)=O was tested. Which pIC50 (second compound 0.00316 µM) did it give?
The pIC50 was under 5.00.

And the pIC50 (second compound 0.01 µM)?
Its pIC50 is under 5.00.

And the pIC50 (second compound 0.0316 µM)?
Its pIC50 is under 5.00.

And the pIC50 (second compound 0.1 µM)?
Its pIC50 is over 7.50.

And the pIC50 (second compound 0.316 µM)?
The pIC50 was over 7.50.

What about the pIC50 (second compound 1 µM) of the same compound?
Its pIC50 is over 7.50.

What about the viability, T/C [1] of the same compound?
Its viability, T/C is 75.6%.

What about the viability, T/C [2] of the same compound?
The viability, T/C was 79.1%.

And the viability, T/C [3]?
Its viability, T/C is 93.8%.

And the viability, T/C [4]?
The viability, T/C was 106%.

What about the viability, T/C [5] of the same compound?
The viability, T/C was 94.3%.

And the viability, T/C [6]?
The viability, T/C was 106%.

And the viability, T/C [7]?
The viability, T/C was 53.1%.

And the viability, T/C [8]?
The viability, T/C was 90.6%.

What about the viability, T/C [9] of the same compound?
Its viability, T/C is 105%.

And the viability, T/C [10]?
Its viability, T/C is 106%.

And the viability, T/C [11]?
Its viability, T/C is 82.4%.

What about the viability, T/C [12] of the same compound?
The viability, T/C was 95.1%.

What about the viability, T/C [13] of the same compound?
The viability, T/C was 74.5%.

And the viability, T/C [14]?
Its viability, T/C is 78.5%.

And the viability, T/C [15]?
Its viability, T/C is 93%.

What about the viability, T/C [16] of the same compound?
The viability, T/C was 77.4%.

What about the viability, T/C [17] of the same compound?
The viability, T/C was 95.9%.

And the viability, T/C [18]?
Its viability, T/C is 86.2%.

And the viability, T/C [19]?
Its viability, T/C is 41.5%.

What about the viability, T/C [20] of the same compound?
The viability, T/C was 54.3%.

And the viability, T/C [21]?
Its viability, T/C is 40.1%.

What about the viability, T/C [22] of the same compound?
Its viability, T/C is 44%.

What about the viability, T/C [23] of the same compound?
The viability, T/C was 46.2%.

What about the viability, T/C [24] of the same compound?
Its viability, T/C is 53.8%.

And the viability, T/C [25]?
Its viability, T/C is 28.6%.

And the viability, T/C [26]?
Its viability, T/C is 24.6%.

What about the viability, T/C [27] of the same compound?
The viability, T/C was 20.2%.

What about the viability, T/C [28] of the same compound?
The viability, T/C was 21.7%.

And the viability, T/C [29]?
Its viability, T/C is 25.9%.

What about the viability, T/C [30] of the same compound?
Its viability, T/C is 27.5%.

And the viability, T/C [31]?
Its viability, T/C is 17.1%.

What about the viability, T/C [32] of the same compound?
Its viability, T/C is 17%.

What about the viability, T/C [33] of the same compound?
Its viability, T/C is 18.3%.

And the viability, T/C [34]?
Its viability, T/C is 19.2%.

And the viability, T/C [35]?
The viability, T/C was 16.9%.

What about the viability, T/C [36] of the same compound?
Its viability, T/C is 20.5%.

Which viability, T/C (compound 0.0316 µM) does the source give for `COc1c(OCCCN2CCOCC2)ccc2c3n(c(=NC(=O)c4cnc(N)nc4)nc12)CCN3` here?
Its viability, T/C is 29% [middle of 6 runs].

And the viability, T/C (compound 0.1 µM)?
The viability, T/C was 15.8% [middle of 6 runs].

And the viability, T/C (compound 0.316 µM)?
The viability, T/C was 8.17% [middle of 6 runs].

And the viability, T/C (compound 1 µM)?
The viability, T/C was 4.83% [middle of 6 runs].

And the IC50 (compound alone, run of 06/13/2023)?
Its IC50 is 13.3 nM [middle of 6 runs].

With `CC1(C)CCC(Nc2ncc(C(F)(F)F)c(-c3c[nH]c4c(P(C)(C)=O)c(C#N)ccc34)n2)CN1` (centres undefined) + CC(Nc1ccc2c(c1)OCCn1cc(N3C(=O)OCC3C(F)F)nc1-2)C(N)=O as the compound, how does the pIC50 (second compound 0.00316 µM) read?
The pIC50 was 5.92.

What about the pIC50 (second compound 0.01 µM) of the same compound?
The pIC50 was 5.98.

And the pIC50 (second compound 0.0316 µM)?
The pIC50 was over 7.50.

What about the pIC50 (second compound 0.1 µM) of the same compound?
Its pIC50 is over 7.50.

What about the pIC50 (second compound 0.316 µM) of the same compound?
Its pIC50 is over 7.50.

And the pIC50 (second compound 1 µM)?
The pIC50 was over 7.50.

And the viability, T/C [1]?
Its viability, T/C is 46.7%.

What about the viability, T/C [2] of the same compound?
Its viability, T/C is 58.8%.

And the viability, T/C [3]?
Its viability, T/C is 43.8%.

And the viability, T/C [4]?
Its viability, T/C is 58.8%.

What about the viability, T/C [5] of the same compound?
The viability, T/C was 39.4%.

And the viability, T/C [6]?
Its viability, T/C is 0.93%.

What about the viability, T/C [7] of the same compound?
Its viability, T/C is 52%.

What about the viability, T/C [8] of the same compound?
The viability, T/C was 53.4%.

And the viability, T/C [9]?
Its viability, T/C is 48%.

What about the viability, T/C [10] of the same compound?
Its viability, T/C is 51.3%.

What about the viability, T/C [11] of the same compound?
The viability, T/C was 38.6%.

What about the viability, T/C [12] of the same compound?
Its viability, T/C is 0.98%.

What about the viability, T/C [13] of the same compound?
Its viability, T/C is 44.4%.

What about the viability, T/C [14] of the same compound?
The viability, T/C was 47.9%.

And the viability, T/C [15]?
The viability, T/C was 38.8%.

What about the viability, T/C [16] of the same compound?
Its viability, T/C is 40.8%.

What about the viability, T/C [17] of the same compound?
Its viability, T/C is 33.4%.

And the viability, T/C [18]?
Its viability, T/C is 0.99%.

What about the viability, T/C [19] of the same compound?
The viability, T/C was 30%.

What about the viability, T/C [20] of the same compound?
Its viability, T/C is 31.6%.

What about the viability, T/C [21] of the same compound?
Its viability, T/C is 27.2%.

And the viability, T/C [22]?
Its viability, T/C is 30.2%.

And the viability, T/C [23]?
Its viability, T/C is 24.5%.

And the viability, T/C [24]?
Its viability, T/C is 0.45%.

What about the viability, T/C [25] of the same compound?
Its viability, T/C is 24.2%.

What about the viability, T/C [26] of the same compound?
Its viability, T/C is 22.8%.

And the viability, T/C [27]?
Its viability, T/C is 20.1%.

And the viability, T/C [28]?
Its viability, T/C is 20.2%.

What about the viability, T/C [29] of the same compound?
The viability, T/C was 15%.

What about the viability, T/C [30] of the same compound?
The viability, T/C was 0.63%.

And the viability, T/C [31]?
The viability, T/C was 20.9%.

What about the viability, T/C [32] of the same compound?
Its viability, T/C is 15%.

What about the viability, T/C [33] of the same compound?
The viability, T/C was 17%.

And the viability, T/C [34]?
The viability, T/C was 18.8%.

What about the viability, T/C [35] of the same compound?
Its viability, T/C is 10.4%.

What about the viability, T/C [36] of the same compound?
Its viability, T/C is 0.26%.
